In brackets after ≈: the same amount, converted by molar mass.
Key:
[1] = target: T1, Rho-associated protein kinase 2 (Homo sapiens, UniProt O75116)
Description: (§1) Inhibition of human ROCK2 by homogenous luciferase assay

[2] = Solubility at pH 7.4; assay type: physicochemical; conditions: buffer
[3] = target: T1, Rho-associated protein kinase 2; remark: listed apart in the source
Description: as §1

[4] = Permeability from apical to basolateral side in human Caco-2 cells; assay type: ADME, cell-based; conditions: Caco-2, read-out: permeability
Cytochrome P450 3A4 = Cytochrome P450 3A4 (Homo sapiens, UniProt P08684); test: Inhibition of human CYP3A4 by LCMS/MS assay; assay type: ADME
[5] = Permeability from basolateral to apical side in human Caco-2 cells; assay type: ADME, cell-based; conditions: read-out: permeability
Cytochrome P450 2C9 = Cytochrome P450 2C9 (Homo sapiens, UniProt P11712); test: Inhibition of human CYP2C9 by LCMS/MS assay; assay type: ADME
Cytochrome P450 2D6 = Cytochrome P450 2D6 (Homo sapiens, UniProt P10635); test: Inhibition of human CYP2D6 by LCMS/MS assay; assay type: ADME
[6] = Metabolic stability in human liver microsomes assessed as half life; assay type: ADME, Microsome
Cytochrome P450 1A2 = target: T2, Cytochrome P450 1A2 (Homo sapiens, UniProt P05177); test: Inhibition of human CYP1A2 by LCMS/MS assay; assay type: ADME
T2 sequence (P05177 whole entry): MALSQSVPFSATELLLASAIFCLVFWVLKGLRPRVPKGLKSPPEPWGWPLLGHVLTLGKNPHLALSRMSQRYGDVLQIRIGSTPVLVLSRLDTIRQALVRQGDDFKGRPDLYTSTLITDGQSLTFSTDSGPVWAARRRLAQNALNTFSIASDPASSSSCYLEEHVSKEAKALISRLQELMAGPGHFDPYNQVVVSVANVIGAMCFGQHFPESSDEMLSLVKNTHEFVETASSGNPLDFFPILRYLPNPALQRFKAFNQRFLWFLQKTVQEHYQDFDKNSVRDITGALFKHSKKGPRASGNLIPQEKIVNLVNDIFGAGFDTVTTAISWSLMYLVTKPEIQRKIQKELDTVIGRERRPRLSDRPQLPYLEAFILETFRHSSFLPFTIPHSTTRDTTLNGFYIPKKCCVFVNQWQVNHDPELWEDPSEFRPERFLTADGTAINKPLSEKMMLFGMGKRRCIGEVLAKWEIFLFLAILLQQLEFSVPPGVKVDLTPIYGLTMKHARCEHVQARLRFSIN

[7] = Membrane permeability by PAMPA assay; assay type: ADME; conditions: read-out: permeability
[8] = target: T1, Rho-associated protein kinase 2; test: Inhibition of human ROCK2 by IMAP assay
[9] = target: T3, Protein kinase C epsilon type (Homo sapiens, UniProt Q02156); test: Inhibition of PKCepsilon
T3 sequence (Q02156 whole entry): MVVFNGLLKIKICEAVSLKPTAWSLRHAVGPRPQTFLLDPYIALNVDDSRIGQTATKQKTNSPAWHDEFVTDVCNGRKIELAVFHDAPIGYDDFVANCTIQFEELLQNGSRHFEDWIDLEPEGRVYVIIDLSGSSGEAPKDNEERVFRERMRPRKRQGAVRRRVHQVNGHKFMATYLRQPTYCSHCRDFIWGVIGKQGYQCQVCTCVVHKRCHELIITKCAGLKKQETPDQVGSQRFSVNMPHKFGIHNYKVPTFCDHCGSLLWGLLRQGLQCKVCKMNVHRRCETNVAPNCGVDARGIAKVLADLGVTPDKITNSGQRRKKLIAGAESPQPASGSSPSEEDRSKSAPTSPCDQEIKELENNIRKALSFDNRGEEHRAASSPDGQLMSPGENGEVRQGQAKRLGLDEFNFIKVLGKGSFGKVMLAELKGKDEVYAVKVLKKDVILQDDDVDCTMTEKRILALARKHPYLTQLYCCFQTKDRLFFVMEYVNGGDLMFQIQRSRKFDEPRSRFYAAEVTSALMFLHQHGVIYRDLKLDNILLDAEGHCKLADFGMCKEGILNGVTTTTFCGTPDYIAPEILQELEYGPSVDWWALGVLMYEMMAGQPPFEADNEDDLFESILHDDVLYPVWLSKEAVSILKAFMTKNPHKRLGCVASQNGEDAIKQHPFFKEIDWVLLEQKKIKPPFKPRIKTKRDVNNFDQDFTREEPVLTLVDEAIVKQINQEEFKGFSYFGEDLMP

[10] = target: Serine/threonine-protein kinase N2 (Homo sapiens, UniProt Q16513)
ROCK1 (Homo sapiens) = test: Inhibition of ROCK1
[11] = target: Serine/threonine-protein kinase MRCK beta (Homo sapiens) (UniProt Q9Y5S2); test: Inhibition of CDC42BPB
Sequence of Serine/threonine-protein kinase MRCK beta (Homo sapiens) (Q9Y5S2 whole entry, looked up): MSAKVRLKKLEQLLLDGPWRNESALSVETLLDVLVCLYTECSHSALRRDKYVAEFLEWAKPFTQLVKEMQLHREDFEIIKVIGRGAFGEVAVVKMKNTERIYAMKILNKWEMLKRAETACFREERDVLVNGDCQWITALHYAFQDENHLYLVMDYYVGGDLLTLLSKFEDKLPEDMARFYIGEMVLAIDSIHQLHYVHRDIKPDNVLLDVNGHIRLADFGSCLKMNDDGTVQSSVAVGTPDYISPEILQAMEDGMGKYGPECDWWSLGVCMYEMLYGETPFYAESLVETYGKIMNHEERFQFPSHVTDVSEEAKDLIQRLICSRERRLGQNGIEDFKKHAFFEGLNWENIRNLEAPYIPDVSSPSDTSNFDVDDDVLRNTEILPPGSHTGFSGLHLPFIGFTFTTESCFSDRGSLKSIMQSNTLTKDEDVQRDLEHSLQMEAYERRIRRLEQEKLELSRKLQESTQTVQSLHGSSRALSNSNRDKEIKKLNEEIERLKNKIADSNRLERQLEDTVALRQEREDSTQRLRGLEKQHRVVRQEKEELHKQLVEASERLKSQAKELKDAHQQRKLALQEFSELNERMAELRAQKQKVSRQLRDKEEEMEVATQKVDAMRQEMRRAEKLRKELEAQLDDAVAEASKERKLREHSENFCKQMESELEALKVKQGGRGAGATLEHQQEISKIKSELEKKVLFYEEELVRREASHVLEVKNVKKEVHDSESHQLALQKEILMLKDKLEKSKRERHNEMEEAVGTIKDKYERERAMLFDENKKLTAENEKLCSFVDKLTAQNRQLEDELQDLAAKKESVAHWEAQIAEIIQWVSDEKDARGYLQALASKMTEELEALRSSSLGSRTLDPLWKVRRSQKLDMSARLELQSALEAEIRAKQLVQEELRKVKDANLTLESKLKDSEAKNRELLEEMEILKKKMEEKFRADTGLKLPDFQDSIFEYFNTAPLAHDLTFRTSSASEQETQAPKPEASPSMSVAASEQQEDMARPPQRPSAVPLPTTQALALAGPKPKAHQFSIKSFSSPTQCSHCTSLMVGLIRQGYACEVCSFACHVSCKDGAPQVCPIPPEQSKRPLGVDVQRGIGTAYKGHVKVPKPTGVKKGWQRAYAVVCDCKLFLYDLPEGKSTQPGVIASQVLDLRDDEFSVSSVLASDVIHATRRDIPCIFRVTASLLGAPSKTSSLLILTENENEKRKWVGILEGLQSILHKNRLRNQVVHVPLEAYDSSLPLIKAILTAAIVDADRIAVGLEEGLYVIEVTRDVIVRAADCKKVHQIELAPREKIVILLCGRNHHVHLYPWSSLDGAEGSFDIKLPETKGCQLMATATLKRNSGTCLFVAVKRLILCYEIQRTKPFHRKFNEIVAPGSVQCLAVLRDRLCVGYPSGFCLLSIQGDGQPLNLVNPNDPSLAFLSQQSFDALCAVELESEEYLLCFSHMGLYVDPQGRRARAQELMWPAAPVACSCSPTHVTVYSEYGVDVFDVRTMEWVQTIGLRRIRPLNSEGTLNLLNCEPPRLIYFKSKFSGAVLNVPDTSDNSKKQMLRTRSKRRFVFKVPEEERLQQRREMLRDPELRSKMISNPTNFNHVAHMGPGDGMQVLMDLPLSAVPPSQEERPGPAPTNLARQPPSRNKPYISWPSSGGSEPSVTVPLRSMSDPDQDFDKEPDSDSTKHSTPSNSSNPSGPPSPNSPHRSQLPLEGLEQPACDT

Sequence of Serine/threonine-protein kinase N2 (Q16513 whole entry): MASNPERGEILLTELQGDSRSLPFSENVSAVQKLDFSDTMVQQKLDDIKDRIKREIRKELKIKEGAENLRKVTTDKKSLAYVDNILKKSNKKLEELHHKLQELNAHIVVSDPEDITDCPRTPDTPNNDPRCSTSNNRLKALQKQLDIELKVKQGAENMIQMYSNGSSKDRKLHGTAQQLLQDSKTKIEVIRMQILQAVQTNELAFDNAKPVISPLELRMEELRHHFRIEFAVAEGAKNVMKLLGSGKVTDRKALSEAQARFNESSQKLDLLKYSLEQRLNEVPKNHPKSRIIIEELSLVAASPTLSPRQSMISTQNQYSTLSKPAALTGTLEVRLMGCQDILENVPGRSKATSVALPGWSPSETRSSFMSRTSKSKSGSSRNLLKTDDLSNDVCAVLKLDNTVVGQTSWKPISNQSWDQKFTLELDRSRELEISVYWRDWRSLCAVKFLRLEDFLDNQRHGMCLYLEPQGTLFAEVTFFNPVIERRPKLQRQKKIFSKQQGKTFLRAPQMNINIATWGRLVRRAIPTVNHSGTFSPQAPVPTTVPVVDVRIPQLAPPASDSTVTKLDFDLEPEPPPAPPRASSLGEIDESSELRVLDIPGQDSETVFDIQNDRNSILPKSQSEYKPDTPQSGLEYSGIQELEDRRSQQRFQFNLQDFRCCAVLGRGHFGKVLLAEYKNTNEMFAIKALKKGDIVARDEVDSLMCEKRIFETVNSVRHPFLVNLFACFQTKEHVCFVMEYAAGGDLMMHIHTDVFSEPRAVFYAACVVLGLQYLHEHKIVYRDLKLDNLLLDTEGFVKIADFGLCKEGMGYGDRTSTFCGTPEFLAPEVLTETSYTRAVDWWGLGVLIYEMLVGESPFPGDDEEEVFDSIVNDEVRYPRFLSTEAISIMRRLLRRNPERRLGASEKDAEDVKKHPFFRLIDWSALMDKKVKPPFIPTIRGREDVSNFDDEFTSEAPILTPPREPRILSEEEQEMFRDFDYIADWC
T1 sequence (O75116 whole entry): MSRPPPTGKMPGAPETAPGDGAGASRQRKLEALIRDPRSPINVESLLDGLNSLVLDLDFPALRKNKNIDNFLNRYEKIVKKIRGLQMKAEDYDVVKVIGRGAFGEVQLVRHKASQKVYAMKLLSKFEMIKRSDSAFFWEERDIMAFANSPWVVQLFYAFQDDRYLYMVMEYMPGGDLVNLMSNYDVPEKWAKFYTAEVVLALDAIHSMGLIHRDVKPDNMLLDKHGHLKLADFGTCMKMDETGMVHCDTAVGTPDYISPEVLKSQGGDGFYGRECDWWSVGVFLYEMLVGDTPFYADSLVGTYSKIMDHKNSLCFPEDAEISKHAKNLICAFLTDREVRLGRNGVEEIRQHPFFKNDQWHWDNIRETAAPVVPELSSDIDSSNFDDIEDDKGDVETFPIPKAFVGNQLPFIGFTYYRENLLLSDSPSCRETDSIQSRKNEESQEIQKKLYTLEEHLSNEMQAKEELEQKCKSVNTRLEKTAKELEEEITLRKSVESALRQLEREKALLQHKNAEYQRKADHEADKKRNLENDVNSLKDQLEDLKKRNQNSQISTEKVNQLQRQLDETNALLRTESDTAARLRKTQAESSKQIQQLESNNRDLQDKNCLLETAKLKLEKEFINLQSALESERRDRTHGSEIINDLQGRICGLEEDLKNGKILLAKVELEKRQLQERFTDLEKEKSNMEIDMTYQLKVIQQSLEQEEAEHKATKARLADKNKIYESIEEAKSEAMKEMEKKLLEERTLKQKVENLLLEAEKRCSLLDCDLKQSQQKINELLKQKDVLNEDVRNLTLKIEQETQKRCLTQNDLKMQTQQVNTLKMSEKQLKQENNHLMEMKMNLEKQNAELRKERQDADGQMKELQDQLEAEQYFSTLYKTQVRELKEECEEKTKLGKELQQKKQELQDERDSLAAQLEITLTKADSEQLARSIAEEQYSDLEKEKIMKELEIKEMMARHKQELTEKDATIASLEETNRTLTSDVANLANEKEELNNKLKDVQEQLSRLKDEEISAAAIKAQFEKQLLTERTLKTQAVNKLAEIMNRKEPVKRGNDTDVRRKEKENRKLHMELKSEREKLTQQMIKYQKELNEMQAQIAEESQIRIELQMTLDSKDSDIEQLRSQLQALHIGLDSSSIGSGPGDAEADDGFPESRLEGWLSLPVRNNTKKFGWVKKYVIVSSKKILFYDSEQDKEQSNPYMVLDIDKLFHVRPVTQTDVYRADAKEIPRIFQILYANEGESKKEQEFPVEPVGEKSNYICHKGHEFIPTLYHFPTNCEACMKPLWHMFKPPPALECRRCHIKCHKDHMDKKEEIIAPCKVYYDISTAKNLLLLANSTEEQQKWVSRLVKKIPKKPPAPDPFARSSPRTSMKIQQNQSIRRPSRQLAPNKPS
Sequence of Cytochrome P450 2D6 (P10635 whole entry): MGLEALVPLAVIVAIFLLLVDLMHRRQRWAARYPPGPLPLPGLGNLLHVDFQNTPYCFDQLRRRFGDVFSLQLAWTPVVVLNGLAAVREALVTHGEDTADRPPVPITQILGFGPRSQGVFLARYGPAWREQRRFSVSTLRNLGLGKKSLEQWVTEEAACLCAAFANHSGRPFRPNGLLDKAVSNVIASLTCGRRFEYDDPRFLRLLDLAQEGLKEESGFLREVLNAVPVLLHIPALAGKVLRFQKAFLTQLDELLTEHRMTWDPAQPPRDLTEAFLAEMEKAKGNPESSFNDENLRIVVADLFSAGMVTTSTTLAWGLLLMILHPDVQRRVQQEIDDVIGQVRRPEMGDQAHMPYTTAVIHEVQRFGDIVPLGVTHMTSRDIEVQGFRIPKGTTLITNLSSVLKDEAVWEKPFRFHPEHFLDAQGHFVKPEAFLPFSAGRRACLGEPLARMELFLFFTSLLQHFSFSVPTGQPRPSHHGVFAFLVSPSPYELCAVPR
Sequence of Cytochrome P450 3A4 (P08684 whole entry): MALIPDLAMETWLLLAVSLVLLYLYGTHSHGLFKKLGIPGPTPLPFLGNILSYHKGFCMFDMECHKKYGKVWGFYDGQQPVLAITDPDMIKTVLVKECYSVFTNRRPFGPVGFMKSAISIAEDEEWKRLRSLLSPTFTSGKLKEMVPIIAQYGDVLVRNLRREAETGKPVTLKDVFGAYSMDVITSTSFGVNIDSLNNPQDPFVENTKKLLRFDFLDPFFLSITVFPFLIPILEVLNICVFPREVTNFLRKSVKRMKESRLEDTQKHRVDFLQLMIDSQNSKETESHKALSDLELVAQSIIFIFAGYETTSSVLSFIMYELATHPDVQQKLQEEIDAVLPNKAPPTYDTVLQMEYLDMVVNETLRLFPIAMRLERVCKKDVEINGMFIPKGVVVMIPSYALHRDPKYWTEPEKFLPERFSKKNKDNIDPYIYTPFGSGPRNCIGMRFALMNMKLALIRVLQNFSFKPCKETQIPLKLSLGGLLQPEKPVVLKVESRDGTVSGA

## COc1ccc(NC(=O)Cc2cccc(NC(=O)CCC3CCCNC3)c2)cc1OC (stereo not drawn)
[1]
  IC50: 37 µM

## COc1ccc(C(=O)NCc2cccc(C(=O)Nc3ccc(CO)cc3)c2)cc1OC
[2]
  solubility: 48 µg/mL (≈ 114 µM)
[3]
  IC50: 0.87 µM
[4]
  Papp A→B: 0.6 ×10⁻⁶ cm/s
Cytochrome P450 3A4
  IC50: > 30 µM
[5]
  Papp B→A: 16.1 ×10⁻⁶ cm/s
Cytochrome P450 2C9
  IC50: > 30 µM
Cytochrome P450 2D6
  IC50: > 30 µM
[6]
  half-life: 41 min
Cytochrome P450 1A2
  IC50: > 30 µM
[7]
  Papp: 10 ×10⁻⁶ cm/s

## CN(C)Cc1ccc(NC(=O)c2cccc(CNC(=O)Nc3ccc(C(N)=O)c(Cl)c3)c2)cc1
[8]
  IC50: 0.18 µM
[1]
  IC50: 74 µM

## COc1ccc(C(=O)NCc2cccc(NC(=O)CCC3CCCNC3)c2)cc1OC (stereo not drawn)
[3]
  IC50: 0.073 µM
[9]
  IC50: > 5 µM
[10]
  IC50: > 5 µM
ROCK1 (Homo sapiens)
  IC50: 0.19 µM
[11]
  IC50: > 5 µM

## COc1ccc(CC(=O)Nc2cccc(C(=O)NCCC3CCCNC3)c2)cc1OC (stereo not drawn)
[1]
  IC50: 3200 µM

## COc1ccc(NC(=O)Nc2cccc(C(=O)NCCC3CCCNC3)c2)cc1OC (stereo not drawn)
[3]
  IC50: > 7000 µM

## CN(C)Cc1ccc(NC(=O)c2cccc(CNC(=O)Nc3ccc(C(N)=O)cc3)c2)cc1
[8]
  IC50: 0.014 µM
[1]
  IC50: 8 µM

## COc1ccc(C(=O)NCc2cccc(C(=O)NCCc3ccncc3)c2)cc1
[3]
  IC50: > 7000 µM

## CCCNC(=O)c1cccc(CNC(=O)c2ccc(OC)c(OC)c2)c1
[3]
  IC50: 5 µM

## COc1ccc(C(=O)NCc2cccc(C(=O)Nc3ccc4cnccc4c3)c2)cc1OC
[1]
  IC50: 685 µM

## COc1ccc(C(=O)NCc2cccc(C(=O)Nc3ccc4c(c3)CCNC4)c2)cc1OC
[8]
  IC50: 0.32 µM
[1]
  IC50: 100 µM

## N#Cc1cccc(NC(=O)NCc2cccc(C(=O)NCC3CCCO3)c2)c1 (racemic)
[3]
  IC50: 3.5 µM

## N#Cc1cccc(NC(=O)NCc2cccc(C(=O)NCCC3CCCNC3)c2)c1 (stereo not drawn)
[3]
  IC50: 0.089 µM
[9]
  IC50: > 5 µM
[10]
  IC50: > 5 µM
[11]
  IC50: > 5 µM

## N#Cc1ccc(NC(=O)NCc2cccc(C(=O)NCCC3CCNCC3)c2)cc1
[1]
  IC50: 65 µM

## N#Cc1ccc(NC(=O)NCc2cccc(C(=O)NCCC3CCCNC3)c2)cc1 (stereo not drawn)
[3]
  IC50: 0.018 µM
[9]
  IC50: > 5 µM
[10]
  IC50: 1.7 µM
ROCK1 (Homo sapiens)
  IC50: 0.031 µM
[11]
  IC50: > 5 µM

## N#Cc1ccc(NC(=O)NCc2cccc(NC(=O)CCC3CCCNC3)c2)cc1 (stereo not drawn)
[1]
  IC50: 110 µM

## CN(C)Cc1ccc(NC(=O)c2cccc(CNC(=O)c3ccc(O)c(O)c3)c2)cc1
[3]
  IC50: > 6 µM
[8]
  IC50: > 6.4 µM

## CN(C)Cc1ccc(NC(=O)c2cccc(CNC(=O)c3ccc(OC(F)(F)F)c(Cl)c3)c2)cc1
[8]
  IC50: 1.3 µM
[1]
  IC50: 670 µM

## COc1ccc(C(=O)NCc2cccc(C(=O)Nc3ccc(CN(C)C)cc3)c2)cc1C
[2]
  solubility: > 88 µg/mL
[4]
  Papp A→B: 7.9 ×10⁻⁶ cm/s
Cytochrome P450 3A4
  IC50: 13.5 µM
[5]
  Papp B→A: 30.8 ×10⁻⁶ cm/s
Cytochrome P450 2C9
  IC50: 12.5 µM
Cytochrome P450 2D6
  IC50: > 30 µM
[8]
  IC50: 0.66 µM
Cytochrome P450 1A2
  IC50: > 30 µM
[7]
  Papp: 21 ×10⁻⁶ cm/s

## COc1ccc(CNC(=O)c2cccc(C(=O)NCCC3CCCNC3)c2)cc1OC (stereo not drawn)
[3]
  IC50: > 6000 µM

## CN(C)Cc1ccc(NC(=O)c2cccc(CNC(=O)Nc3ccc(C#N)cc3)c2)cc1
[3]
  IC50: 0.065 µM
[9]
  IC50: > 5 µM
[10]
  IC50: > 5 µM
[8]
  IC50: 0.16 µM
[11]
  IC50: > 5 µM

Source: ChEMBL document CHEMBL1157712, “Hit to lead account of the discovery of bisbenzamide and related ureidobenzamide inhibitors of Rho kinase” (J Med Chem, 2010)
